In experiment [1] the test system is APOBEC3G-Myc. As to the kind of experiment: Immunofluorescence microscopy of Vif and APOBEC3G-Myc in cotransfected COS7 cells. The experiment is classed as cell-based, African green monkey. As to conditions: ALLN in DMSO, FIG. 5B. As to the method: For immunofluorescence, COS7 cells were used because they are more adherent than 293T cells. Cells cultured in Permanox chamber slides (Nalge Nunc International) were fixed in 5% formaldehyde and 2% sucrose in PBS (Invitrogen) at room temperature for 20 minutes, and permeabilized with 1% Triton X-100 in PBS with 10% sucrose for 30 minutes. Primary antibodies were Vif antiserum #2221 or the Myc-specific monoclonal antibody 9E10. Secondary fluorescent antibodies were Alexa Fluor 488 goat anti-rabbit IgG(H+L) and Alexa Fluor 594 goat anti-mouse IgG (H+L) (Molecular Probes Inc), which reacted only with their species-specific primary antibodies. Slides were mounted in FluoroGuard (BioRad Laboratories), and observed with a Zeiss Axiovert 200M deconvolution microscope. The percentage of double-positive cells in FIG. 5B is defined as the percentage of the Vif-positive cells and that contained APOBEC3G-Myc. RNA extraction and Northern blot analyses were previously described (Tailor et al., Proc. Natl. Acad. Sci. USA 96, 927–932, 1999). A cDNA probe for the S2 ribosomal protein was used as a loading control.

The subject of experiment [2] is Vif-mediated elimination of YFP-APOBEC3G. As to the kind of experiment: Fluorescence of YFP-APOBEC3G in 293T cultures cotransfected with Vif. As to conditions: ALLN for eight hours. The experiment is classed as cell-based, human. From the text:
Using methods essentially similar to those described in Example 1, a vector was constructed that encodes a chimeric protein containing the yellow fluorescent protein (YFP) at the amino terminus and APOBEC3G at the carboxyl terminus (YFP-APOBEC3G; SEQ ID NOs: 3 and 4). Cotransfection of plasmids that encode this chimera and Vif into human 293T cell cultures results in only a few fluorescent cells, consistent with a Vif-induced degradation (FIG. 13A, top two panels). In contrast, cotransfection with a vector lacking Vif results in a much larger fraction of fluorescent cells.

The test system of experiment [3] is total cellular polyubiquitinated proteins. Briefly: Western blot of total cell culture extracts with ubiquitin-specific antibody. As to conditions: 293T; for amounts of total polyubiquitinated proteins (inhibitor activity in cultures with and without Vif): 50 μM inhibitor; for quantities of total cellular polyubiquitinated proteins (inhibitor activity in both cultures): preincubated 6 hours, FIG. 9B. The experiment is classed as cell-based, human. From the text:
(§1) Expression vectors: pHIV-gpt(wt) and its derivative pHIV-gpt(Δvif) were previously described (Madani & Kabat, J. Virol. 72, 10251–10255, 1998; Page et al., J Virol 64, 5270–5276, 1990; Madani & Kabat, J. Virol. 74, 5982–5987, 2000). pcDNA3.1-Vif was donated by D. Gabuzda (Dana-Farber Cancer Institute, Harvard, Boston, Mass.). Rev-dependent plasmids for expression of the Vif mutants Δ2, Δ5, Δ6, Δ7, Δ9, Δ10, Δ12 and Δ13 (Simon et al., J. Virol. 73, 2675–2681, 1999) were provided by M. Malim (Medical Research Council, Cambridge, UK) and were coexpressed with pHIV-gpt(Δvif). APOBEC3G cDNA was cloned from H9 cells (nonpermissive) by reverse transcriptase-PCR (Barnes, Proc. Natl. Acad. Sci. USA 91, 2216–2220, 1994; Sambrook et al., Molecular Cloning. A Laboratory Manual, Chapter 14, 14.5–14.34., CSHL Press, Cold Spring Harbor, 1989) using primers complementary to the 5′ and 3′ ends of APOBEC3G coding region (Sheehy et al., Nature 418, 646–650, 2002) (upstream primer, 5′-[…]-3′ (SEQ ID NO: 15) containing an XhoI restriction site [underlined]; downstream primer, 5′-[…]-3′ (SEQ ID NO: 16) containing a SfuI restriction site [underlined]). The cDNA was cloned between XhoI and SfuI into the pcDNA3.1/Myc-His C mammalian expression vector (Invitrogen) to obtain the pcDNA3.1-APOBEC3G-Myc vector. The pSVIIIEnv vector was used to pseudotype HIV-gpt virions (Helseth et al., J. Virol. 64, 2416–2420, 1990). Transfections employed PolyFect reagent (Qiagen, Inc.) according to the manufacturer's instructions, with equimolar ratios of all plasmids and with harvests after 36 hours unless otherwise mentioned. Viruses: HIV-gpt virions were produced and titered as previously described (Page et al., J Virol 64, 5270–5276, 1990; Page et al., J Virol 66, 524–533, 1992; Platt et al., J. Virol. 75, 12266–12278, 2001). For viral purifications, 27 ml of the virus-containing media from 293T cells were pelleted through 2 ml of a 20% sucrose at 100,000 g for 1.5 hours. Virions were resuspended in TSE (0.1 M NaCl, 1 mM EDTA, 0.01M Tris-Cl, pH 7.4), and centrifuged to equilibrium in 5 ml 20–60% sucrose gradients in TSE at 200,000 g for 2.5 hours. Virus-containing fractions were detected by immunoblotting using HIV Immunoglobulin serum (AIDS Research & Reference Reagent Program, Division of AIDS, NIAID, NIH: contributed by NABI and NHLBI). Peak fractions were pooled, diluted with TSE, and pelleted through 20% sucrose at 100,000 g for two hours. Analysis of proteins and RNAs: Extracts of cotransfected 293T and COS7 cultures were prepared using either TX (1% Triton X-100, 150 mM NaCl, 10 mM Tris-Cl, pH 7.5, 1 mM MgCl) or RIPA (50 mM Tris-Ci pH 7.4, 1% Nonidet P40, 0.1% sodium deoxycholate, 150 mM NaCl) buffers with complete protease inhibitors (Roche), followed by centrifugation at 1,500 g for 5 minutes to sediment nuclei. Extracts were adjusted to equivalent protein concentrations using the Bradford reagent (BioRad Laboratories), and equal aliquots were then used for Western immunoblotting (Marin et al., J. Virol. 74, 8085–8093, 2000) or for immunoprecipitations (Klippel et al., Mol. Cell. Biol. 14, 2675–2685, 1994) using the antibodies HIV-1 HXB2 Vif rabbit antiserum #2221, (AIDS Research and Reference Reagent Program, Division of AIDS, NIAID, NIH: contributed by Dr. D. Gabuzda), Myc-specific monoclonal antibody clone 9E10 (Sigma) (Marin et al., J. Virol. 74, 8085–8093, 2000), or the ubiquitin-specific mouse monoclonal antibody (Zymed). […] Where indicated, cultures were preincubated with 50 μM concentrations of the proteasome inhibitors ALLN, MG-132, or Proteasome Inhibitor-I (Calbiochem).

In experiment [4] the test system is polyubiquitinated APOBEC3G. As to the kind of experiment: Ni-NTA purification of APOBEC3G-Myc in 8M urea and immunoblotting with ubiquitin-specific antibody. The settings on record: 293T; ALLN 10 hours; FIG. 11B. The experiment is classed as cell-based, human. From the text:
Expression vectors: pHIV-gpt(wt) and its derivative pHIV-gpt(Δvif) were previously described (Madani & Kabat, J. Virol. 72, 10251–10255, 1998; Page et al., J Virol 64, 5270–5276, 1990; Madani & Kabat, J. Virol. 74, 5982–5987, 2000). pcDNA3.1-Vif was donated by D. Gabuzda (Dana-Farber Cancer Institute, Harvard, Boston, Mass.). Rev-dependent plasmids for expression of the Vif mutants Δ2, Δ5, Δ6, Δ7, Δ9, Δ10, Δ12 and Δ13 (Simon et al., J. Virol. 73, 2675–2681, 1999) were provided by M. Malim (Medical Research Council, Cambridge, UK) and were coexpressed with pHIV-gpt(Δvif). APOBEC3G cDNA was cloned from H9 cells (nonpermissive) by reverse transcriptase-PCR (Barnes, Proc. Natl. Acad. Sci. USA 91, 2216–2220, 1994; Sambrook et al., Molecular Cloning. A Laboratory Manual, Chapter 14, 14.5–14.34., CSHL Press, Cold Spring Harbor, 1989) using primers complementary to the 5′ and 3′ ends of APOBEC3G coding region (Sheehy et al., Nature 418, 646–650, 2002) (upstream primer, 5′-[…]-3′ (SEQ ID NO: 15) containing an XhoI restriction site [underlined]; downstream primer, 5′-[…]-3′ (SEQ ID NO: 16) containing a SfuI restriction site [underlined]). […] Virus-containing fractions were detected by immunoblotting using HIV Immunoglobulin serum (AIDS Research & Reference Reagent Program, Division of AIDS, NIAID, NIH: contributed by NABI and NHLBI). […]

In experiment [5] the test system is Vif-dependent down modulation of APOBEC3G-Myc. Briefly: Western immunoblotting of APOBEC3G-Myc in cotransfected 293T cultures that contain or lack Vif. It is filed as cell-based, human. As to conditions: for quantity of APOBEC3G-Myc in the cultures that contained Vif: incubated 10 hours, FIG. 11A.
Description: as §1

Each structure is given as a SMILES string. Entries after “also recorded” stand apart in the source; their conditions may differ. Non-standard residues stand in square brackets, D forms with d. Residues, ends and D or L forms follow the SMILES beside them. *: point of attachment. Nle = CCCC[C@H](N)C(=O)O; Cbz = O=C(OCc1ccccc1)*; OtBu = CC(C)(C)O*

As to `CCCC[C@@H](C=O)NC(=O)[C@H](CC(C)C)NC(=O)[C@H](CC(C)C)NC(C)=O` [ALLN] (Ac-Leu-Leu-[Nle]-aldehyde), the “percentage of cells that coexpressed wild-type Vif and APOBEC3G-Myc” value in experiment [1] was “dramatic increase in coexpression; also recorded: this decrease was alleviated by ALLN”. The “cells with YFP-APOBEC3G fluorescence in the culture that contains Vif” value in experiment [2] is “reverses the Vif-dependent elimination of the chimeric protein; also recorded: blocks Vif-mediated elimination of YFP-APOBEC3G; also recorded: accumulate in many more cells”. In experiment [3], the “amounts of total polyubiquitinated proteins (inhibitor activity in cultures with and without Vif)” value is reported as “active in both cultures”; the “quantities of total cellular polyubiquitinated proteins (inhibitor activity in both cultures)” value is listed as “active in both cultures”. In addition, the “amount of polyubiquitinated APOBEC3G-Myc, effect of proteasome inhibitor” value in experiment [4] is given as “substantially increased; also recorded: greatly increased”. In addition, in experiment [5] (50 μM inhibitor, 6–10 hour), the “control protein α-tubulin” value is reported as “no effect”, the “quantities of APOBEC3G-Myc in the cultures that contained Vif” value is recorded as “increased the quantities of APOBEC3G-Myc” and the “quantities of APOBEC3G-Myc in the cultures that lacked Vif” value was “not in the cultures that lacked Vif”. In addition, the “quantity of APOBEC3G-Myc in the cultures that contained Vif” value (from here on “quantity of APOBEC3G-Myc”) in experiment [5] is “increased the quantity of APOBEC3G-Myc”. In addition, in experiment [5] (preincubated 6 hours, FIG. 9B), the “quantities of APOBEC3G-Myc in the cultures that contained Vif” value is “increased the quantities of APOBEC3G-Myc” and the “quantities of APOBEC3G-Myc in the cultures that lacked Vif” value is recorded as “not in the cultures that lacked Vif”.
On to `CC(C)C[C@@H](C=O)NC(=O)[C@H](CC(C)C)NC(=O)[C@H](CC(C)C)NC(=O)OCc1ccccc1` [MG-132] (Cbz-Leu-Leu-Leu-aldehyde), for which, in experiment [3], the “amounts of total polyubiquitinated proteins (inhibitor activity in cultures with and without Vif)” value is “active in both cultures”; the “quantities of total cellular polyubiquitinated proteins (inhibitor activity in both cultures)” value is given as “active in both cultures”. For the same compound, in experiment [5] (50 μM inhibitor, 6–10 hour), the “control protein α-tubulin” value is listed as “no effect”, the “quantities of APOBEC3G-Myc in the cultures that contained Vif” value is on record as “increased the quantities of APOBEC3G-Myc” and the “quantities of APOBEC3G-Myc in the cultures that lacked Vif” value is reported as “not in the cultures that lacked Vif”. Also, the “quantity of APOBEC3G-Myc” value in experiment [5] is reported as “increased the quantity of APOBEC3G-Myc”. Further, in experiment [5] (preincubated 6 hours, FIG. 9B), the “quantities of APOBEC3G-Myc in the cultures that contained Vif” value is “increased the quantities of APOBEC3G-Myc” and the “quantities of APOBEC3G-Myc in the cultures that lacked Vif” value is on record as “not in the cultures that lacked Vif”.
As to `CC[C@H](C)[C@H](NC(=O)OCc1ccccc1)C(=O)N[C@@H](CCC(=O)OC(C)(C)C)C(=O)N[C@@H](C)C(=O)N[C@H](C=O)CC(C)C` [Proteasome Inhibitor-I] (Cbz-IE(OtBu)AL-aldehyde), in experiment [3], the “amounts of total polyubiquitinated proteins (inhibitor activity in cultures with and without Vif)” value is on record as “active in both cultures”; the “quantities of total cellular polyubiquitinated proteins (inhibitor activity in both cultures)” value is “active in both cultures”. Besides, in experiment [5] (50 μM inhibitor, 6–10 hour), the “control protein α-tubulin” value is “no effect”, the “quantities of APOBEC3G-Myc in the cultures that contained Vif” value was “increased the quantities of APOBEC3G-Myc” and the “quantities of APOBEC3G-Myc in the cultures that lacked Vif” value was “not in the cultures that lacked Vif”. Moreover, the “quantity of APOBEC3G-Myc” value in experiment [5] is given as “increased the quantity of APOBEC3G-Myc”. In addition, in experiment [5] (preincubated 6 hours, FIG. 9B), the “quantities of APOBEC3G-Myc in the cultures that contained Vif” value is “increased the quantities of APOBEC3G-Myc” and the “quantities of APOBEC3G-Myc in the cultures that lacked Vif” value is on record as “not in the cultures that lacked Vif”.

Source of the values: patent publication US7220554B2, “Methods for identifying inhibitors” (priority 2003, dated 2007).
